# Assay results from PMC5218480 (PLoS ONE, 2017).
# Test system: MV-4-11 cells
# Test: Gene expression microarray analysis (Affymetrix PrimeView) and GSEA
# Type: cell-based, human
# Set-up: RFU PODN (11730768_x_at) / Fold change /veh PODN (11730768_x_at) / RFU LINC00158 (11744669_a_at) / Fold change /veh LINC00158 (11744669_a_at) / RFU DUSP10 (11751237_a_at) / Fold change /veh DUSP10 (11751237_a_at) / RFU ID3 (11757404_x_at) / Fold change /veh ID3 (11757404_x_at) / RFU PLEKHG5 (11737974_s_at) / Fold change /veh PLEKHG5 (11737974_s_at) / RFU LRRC4B (11730491_at) / Fold change /veh LRRC4B (11730491_at) / RFU GIMAP4 (11747438_a_at) / Fold change /veh GIMAP4 (11747438_a_at) / RFU KRT8 (11758183_x_at) / Fold change /veh KRT8 (11758183_x_at) / RFU CNN1 (11734310_a_at) / Fold change /veh CNN1 (11734310_a_at) / RFU VPS37D (11726825_at) / Fold change /veh VPS37D (11726825_at) / RFU C10orf10 (11716522_x_at) / Fold change /veh C10orf10 (11716522_x_at) / RFU KIR2DL2 /// KIR2DL4 /// KIR2DL5A /// KIR2DL5B /// KIR2DS1 /// KIR2DS2 /// KIR2DS3 /// KIR2DS4 /// KIR3DL3 /// KIR3DL3 /// KIR3DS1 (11738374_at) / Fold change /veh KIR2DL2 /// KIR2DL4 /// KIR2DL5A /// KIR2DL5B /// KIR2DS1 /// KIR2DS2 /// KIR2DS3 /// KIR2DS4 /// KIR3DL3 /// KIR3DL3 /// KIR3DS1 (11738374_at) / RFU C1QL1 (11718748_at) / Fold change /veh C1QL1 (11718748_at) / RFU TMPRSS4 (11747572_a_at) / Fold change /veh TMPRSS4 (11747572_a_at) / RFU HAMP (11756126_x_at) / Fold change /veh HAMP (11756126_x_at) / RFU RNFT2 (11725882_a_at) / Fold change /veh RNFT2 (11725882_a_at) / RFU NR4A2 (11747474_a_at) / Fold change /veh NR4A2 (11747474_a_at) / RFU ABCC12 (11746883_a_at) / Fold change /veh ABCC12 (11746883_a_at) / RFU TMEM136 (11760407_x_at) / Fold change /veh TMEM136 (11760407_x_at) / RFU CLDN22 /// WWC2 (11732394_at) / Fold change /veh CLDN22 /// WWC2 (11732394_at) / RFU HLA-DPB1 (11760878_x_at) / Fold change /veh HLA-DPB1 (11760878_x_at) / RFU SPINT1 (11716480_a_at) / Fold change /veh SPINT1 (11716480_a_at) / RFU GAP43 (11754022_s_at) / Fold change /veh GAP43 (11754022_s_at) / RFU A4GNT (11735810_at) / Fold change /veh A4GNT (11735810_at) / RFU PRB3 (11715151_x_at) / Fold change /veh PRB3 (11715151_x_at) / RFU TUBB4B (11761932_at) / Fold change /veh TUBB4B (11761932_at) / RFU CAPN14 (11732068_a_at) / Fold change /veh CAPN14 (11732068_a_at) / RFU TMCC2 (11721928_a_at) / Fold change /veh TMCC2 (11721928_a_at) / RFU IRGQ (11745062_a_at) / Fold change /veh IRGQ (11745062_a_at) / RFU FAM174B (11720279_a_at) / Fold change /veh FAM174B (11720279_a_at) / RFU TMPRSS4 (11748680_a_at) / Fold change /veh TMPRSS4 (11748680_a_at) / RFU FAM212B (11763350_a_at) / Fold change /veh FAM212B (11763350_a_at) / RFU PLEKHG5 (11743358_a_at) / Fold change /veh PLEKHG5 (11743358_a_at) / RFU ZSCAN30 (11745921_a_at) / Fold change /veh ZSCAN30 (11745921_a_at) / RFU CMKLR1 (11741424_a_at) / Fold change /veh CMKLR1 (11741424_a_at) / RFU LOC101060620 /// MAPK8IP1 (11723275_at) / Fold change /veh LOC101060620 /// MAPK8IP1 (11723275_at) / RFU SPTSSB (11747773_x_at) / Fold change /veh SPTSSB (11747773_x_at) / RFU PRSS12 (11739890_at) / Fold change /veh PRSS12 (11739890_at) / RFU BIN1 (11741810_x_at) / Fold change /veh BIN1 (11741810_x_at) / RFU WNT11 (11732464_a_at) / Fold change /veh WNT11 (11732464_a_at) / RFU C10orf10 (11716521_a_at) / Fold change /veh C10orf10 (11716521_a_at) / RFU C5orf56 (11738089_at) / Fold change /veh C5orf56 (11738089_at) / RFU CYB561 (11721691_x_at) / Fold change /veh CYB561 (11721691_x_at) / RFU ANKRD19P (11752326_a_at) / Fold change /veh ANKRD19P (11752326_a_at) / RFU OR2T12 /// OR2T33 /// OR2T8 (11738714_s_at) / Fold change /veh OR2T12 /// OR2T33 /// OR2T8 (11738714_s_at) / RFU VCAN (11748164_a_at) / Fold change /veh VCAN (11748164_a_at) / RFU JSRP1 (11732532_at) / Fold change /veh JSRP1 (11732532_at) / RFU KRTAP10-11 (11738290_x_at) / Fold change /veh KRTAP10-11 (11738290_x_at) / RFU MYO3A (11730013_a_at) / Fold change /veh MYO3A (11730013_a_at) / RFU EBF3 (11725865_a_at) / Fold change /veh EBF3 (11725865_a_at) / RFU CAMK2N1 (11719241_x_at) / Fold change /veh CAMK2N1 (11719241_x_at) / RFU C5orf56 (11738088_a_at) / Fold change /veh C5orf56 (11738088_a_at) / RFU OLFML3 (11715873_a_at) / Fold change /veh OLFML3 (11715873_a_at) / RFU LOC100653217 /// NTM (11731650_a_at) / Fold change /veh LOC100653217 /// NTM (11731650_a_at) / RFU MAPK11 (11762145_a_at) / Fold change /veh MAPK11 (11762145_a_at) / RFU FIZ1 (11724087_x_at) / Fold change /veh FIZ1 (11724087_x_at) / RFU OASL (11726364_x_at) / Fold change /veh OASL (11726364_x_at) / RFU SOX15 (11748057_x_at) / Fold change /veh SOX15 (11748057_x_at) / RFU CD79A (11719716_a_at) / Fold change /veh CD79A (11719716_a_at) / RFU HIST1H1D (11736915_at) / Fold change /veh HIST1H1D (11736915_at) / RFU CASKIN2 (11723855_a_at) / Fold change /veh CASKIN2 (11723855_a_at) / RFU LOC730098 (11760151_x_at) / Fold change /veh LOC730098 (11760151_x_at) / RFU OR4N2 (11742367_at) / Fold change /veh OR4N2 (11742367_at) / RFU PRRT2 (11749266_a_at) / Fold change /veh PRRT2 (11749266_a_at) / RFU SNX32 (11753110_a_at) / Fold change /veh SNX32 (11753110_a_at) / RFU CDHR5 (11726645_a_at) / Fold change /veh CDHR5 (11726645_a_at) / RFU RCAN1 (11760418_a_at) / Fold change /veh RCAN1 (11760418_a_at) / RFU FAM167A (11723789_a_at) / Fold change /veh FAM167A (11723789_a_at) / RFU FAM26E (11764081_at) / Fold change /veh FAM26E (11764081_at) / RFU ISYNA1 (11749810_s_at) / Fold change /veh ISYNA1 (11749810_s_at) / RFU ACY1 (11761880_at) / Fold change /veh ACY1 (11761880_at) / RFU 11764098_at / Fold change /veh 11764098_at / RFU SAMD14 (11745864_x_at) / Fold change /veh SAMD14 (11745864_x_at) / RFU NPB (11741838_a_at) / Fold change /veh NPB (11741838_a_at) / RFU TMPRSS6 (11731388_a_at) / Fold change /veh TMPRSS6 (11731388_a_at) / RFU KRTAP10-2 (11738614_at) / Fold change /veh KRTAP10-2 (11738614_at) / RFU ARHGAP8 /// PRR5-ARHGAP8 (11727945_x_at) / Fold change /veh ARHGAP8 /// PRR5-ARHGAP8 (11727945_x_at) / RFU KRTAP5-7 /// NADSYN1 (11734609_at) / Fold change /veh KRTAP5-7 /// NADSYN1 (11734609_at) / RFU RASL12 (11751679_a_at) / Fold change /veh RASL12 (11751679_a_at) / RFU CDKN2B (11736163_a_at) / Fold change /veh CDKN2B (11736163_a_at) / RFU PRF1 (11729649_at) / Fold change /veh PRF1 (11729649_at) / RFU, ZNF638 /// ZNF638-IT1 / Fold change vs veh, ZNF638 /// ZNF638-IT1 / RFU, PANK3 / Fold change vs veh, PANK3 / RFU, SH3YL1 / Fold change vs veh, SH3YL1 / RFU, ZEB2 / Fold change vs veh, ZEB2 / RFU, NRIP1 / Fold change vs veh, NRIP1 / RFU, PTTG1IP / Fold change vs veh, PTTG1IP / RFU, CAPN2 / Fold change vs veh, CAPN2 / RFU, MED14 / Fold change vs veh, MED14 / RFU, SNORA58 / Fold change vs veh, SNORA58 / RFU, C1orf63 / Fold change vs veh, C1orf63 / RFU, LRRFIP1 / Fold change vs veh, LRRFIP1 / RFU, NDUFAF7 / Fold change vs veh, NDUFAF7 / RFU, SLC12A2 / Fold change vs veh, SLC12A2 / RFU, IBTK / Fold change vs veh, IBTK / RFU, ESF1 / Fold change vs veh, ESF1 / Fold change vs veh, TMEM50B / RFU, TAOK1 / Fold change vs veh, TAOK1 / RFU, ACBD3 / Fold change vs veh, ACBD3 / RFU, TMA16 / Fold change vs veh, TMA16 / RFU, RWDD3 / Fold change vs veh, RWDD3 / RFU, BCAT1 / Fold change vs veh, BCAT1 / RFU, EDEM3 / Fold change vs veh, EDEM3 / RFU, TMEM33 / Fold change vs veh, TMEM33 / RFU, WDR75 / Fold change vs veh, WDR75 / RFU, AHCTF1 / Fold change vs veh, AHCTF1 / RFU, TFRC / Fold change vs veh, TFRC / RFU, ZDHHC17 / Fold change vs veh, ZDHHC17 / RFU, NOM1 / Fold change vs veh, NOM1 / RFU, ARL8B / Fold change vs veh, ARL8B / RFU, ZBTB11 / Fold change vs veh, ZBTB11 / RFU, TAMM41 / Fold change vs veh, TAMM41 / RFU, KIAA1704 /// LOC100996395 / Fold change vs veh, KIAA1704 /// LOC100996395 / RFU, ING1 / Fold change vs veh, ING1 / RFU, TRMT61B / Fold change vs veh, TRMT61B / RFU, FUBP3 / Fold change vs veh, FUBP3 / RFU, TP53 / Fold change vs veh, TP53 / RFU, TNKS2 / Fold change vs veh, TNKS2 / RFU, ZFP14 / Fold change vs veh, ZFP14 / RFU, ACTR2 / Fold change vs veh, ACTR2 / RFU, PPP3R1 / Fold change vs veh, PPP3R1 / RFU, PIK3R1 / Fold change vs veh, PIK3R1 / RFU, HNRNPA1 / Fold change vs veh, HNRNPA1 / RFU, RNF170 / Fold change vs veh, RNF170 / RFU, ZNF28 / Fold change vs veh, ZNF28 / RFU, RNGTT / Fold change vs veh, RNGTT / RFU, OGT / Fold change vs veh, OGT / RFU, BRD1 / Fold change vs veh, BRD1 / RFU, MARS / Fold change vs veh, MARS / RFU, ZNF655 / Fold change vs veh, ZNF655 / RFU, FAHD1 / Fold change vs veh, FAHD1 / RFU, BDP1 / Fold change vs veh, BDP1 / RFU, LRRCC1 / Fold change vs veh, LRRCC1 / RFU, ARID1A / Fold change vs veh, ARID1A / RFU, ZNF146 / Fold change vs veh, ZNF146 / RFU, ZNF330 / Fold change vs veh, ZNF330 / RFU, GPN3 / Fold change vs veh, GPN3 / RFU, C9orf123 / Fold change vs veh, C9orf123 / RFU, N4BP2L2 / Fold change vs veh, N4BP2L2 / RFU, ARFIP1 / Fold change vs veh, ARFIP1 / RFU, FAM179B / Fold change vs veh, FAM179B / RFU, BCL10 / Fold change vs veh, BCL10 / RFU, UHRF1BP1L / Fold change vs veh, UHRF1BP1L / RFU, BET1 / Fold change vs veh, BET1 / RFU, CNOT2 / Fold change vs veh, CNOT2 / RFU, ZNF268 / Fold change vs veh, ZNF268 / Fold change vs veh, ZNF507 / RFU, DGCR2 / Fold change vs veh, DGCR2 / RFU, WDSUB1 / Fold change vs veh, WDSUB1 / Fold change vs veh, HSP90B1 /// MIR3652 / RFU, ADSS / Fold change vs veh, ADSS / RFU, GK / Fold change vs veh, GK / RFU, ZNF148 / Fold change vs veh, ZNF148 / RFU, TAF9 / Fold change vs veh, TAF9 / RFU, SLC1A5 / Fold change vs veh, SLC1A5 / RFU, SLMO2 / Fold change vs veh, SLMO2 / RFU, ABCC4 / Fold change vs veh, ABCC4 / RFU, LOC101060439 /// RAP1B / Fold change vs veh, LOC101060439 /// RAP1B / RFU, RFX7 / Fold change vs veh, RFX7 / RFU, GTPBP10 / Fold change vs veh, GTPBP10 / RFU, CNEP1R1 / Fold change vs veh, CNEP1R1 / RFU, BIVM-ERCC5 /// ERCC5 / Fold change vs veh, BIVM-ERCC5 /// ERCC5 / RFU, ILF3 / Fold change vs veh, ILF3 / RFU 11762660_at / Fold change /veh 11762660_at / RFU VCAN (11757783_s_at) / Fold change /veh VCAN (11757783_s_at) / RFU DDX43 (11728927_at) / Fold change /veh DDX43 (11728927_at) / RFU KRT8 (11758188_x_at) / Fold change /veh KRT8 (11758188_x_at) / RFU NKD1 (11759106_at) / Fold change /veh NKD1 (11759106_at) / RFU SRD5A1 (11742802_a_at) / Fold change /veh SRD5A1 (11742802_a_at) / RFU TPSAB1 /// TPSB2 (11721975_s_at) / Fold change /veh TPSAB1 /// TPSB2 (11721975_s_at) / RFU GSTM3 (11746129_a_at) / Fold change /veh GSTM3 (11746129_a_at) / RFU IL23R (11737362_x_at) / Fold change /veh IL23R (11737362_x_at) / RFU TMEM51 (11727254_a_at) / Fold change /veh TMEM51 (11727254_a_at) / RFU PIWIL2 (11732686_x_at) / Fold change /veh PIWIL2 (11732686_x_at) / RFU ORM1 (11744905_x_at) / Fold change /veh ORM1 (11744905_x_at) / RFU CCDC152 (11743942_at) / Fold change /veh CCDC152 (11743942_at) / RFU ECM1 (11717891_a_at) / Fold change /veh ECM1 (11717891_a_at) / RFU IL23R (11748794_a_at) / Fold change /veh IL23R (11748794_a_at) / RFU TNFAIP8L3 (11732012_x_at) / Fold change /veh TNFAIP8L3 (11732012_x_at) / RFU MBOAT4 (11741988_at) / Fold change /veh MBOAT4 (11741988_at) / RFU 11764193_at / Fold change /veh 11764193_at / RFU TMEM53 (11763286_at) / Fold change /veh TMEM53 (11763286_at) / RFU MAGEB2 (11727129_at) / Fold change /veh MAGEB2 (11727129_at) / RFU TMEM200A (11744735_a_at) / Fold change /veh TMEM200A (11744735_a_at) / RFU CCDC152 (11751479_a_at) / Fold change /veh CCDC152 (11751479_a_at) / RFU FAM211A (11726209_a_at) / Fold change /veh FAM211A (11726209_a_at) / RFU RGS16 (11746705_a_at) / Fold change /veh RGS16 (11746705_a_at) / RFU VCAN (11755009_s_at) / Fold change /veh VCAN (11755009_s_at) / RFU RHOB (11743442_s_at) / Fold change /veh RHOB (11743442_s_at) / RFU RGS16 (11720943_a_at) / Fold change /veh RGS16 (11720943_a_at) / RFU RGS16 (11720944_at) / Fold change /veh RGS16 (11720944_at) / RFU, VPS4B / Fold change vs veh, VPS4B / RFU, CREB1 / Fold change vs veh, CREB1 / RFU, DNAJC13 / Fold change vs veh, DNAJC13 / RFU, GNAQ / Fold change vs veh, GNAQ / RFU, CDK5R1 / Fold change vs veh, CDK5R1 / RFU, ZRANB3 / Fold change vs veh, ZRANB3 / RFU, CUL4A / Fold change vs veh, CUL4A / RFU, CCNY / Fold change vs veh, CCNY / RFU, UFL1 / Fold change vs veh, UFL1 / RFU, COG3 / Fold change vs veh, COG3 / RFU, DIAPH2 / Fold change vs veh, DIAPH2 / RFU, SKA2 / Fold change vs veh, SKA2 / RFU, AFF3 / Fold change vs veh, AFF3 / RFU, LMF1 / Fold change vs veh, LMF1 / RFU, IPO11 / Fold change vs veh, IPO11 / RFU, DFFB / Fold change vs veh, DFFB / RFU, FOXP1 / Fold change vs veh, FOXP1 / RFU, CARD8 / Fold change vs veh, CARD8 / RFU, STRN3 / Fold change vs veh, STRN3 / RFU, ADK / Fold change vs veh, ADK / RFU, RASSF2 / Fold change vs veh, RASSF2 / RFU, WIPF1 / Fold change vs veh, WIPF1 / RFU, LARP1B / Fold change vs veh, LARP1B / RFU, RASA1 / Fold change vs veh, RASA1 / RFU, RB1 / Fold change vs veh, RB1 / RFU, PPFIA1 / Fold change vs veh, PPFIA1 / RFU, MAT2A / Fold change vs veh, MAT2A / RFU, CCT5 / Fold change vs veh, CCT5 / RFU, WDR92 / Fold change vs veh, WDR92 / RFU, CUX1 / Fold change vs veh, CUX1 / RFU, TTC7A / Fold change vs veh, TTC7A / RFU, TMEM135 / Fold change vs veh, TMEM135 / RFU, DEPTOR / Fold change vs veh, DEPTOR / RFU, CPM / Fold change vs veh, CPM / RFU, DNAJB6 / Fold change vs veh, DNAJB6 / RFU, CACNA2D3 / Fold change vs veh, CACNA2D3 / RFU, DTX4 / Fold change vs veh, DTX4 / RFU, TFCP2 / Fold change vs veh, TFCP2 / RFU, GMCL1 /// GMCL1P1 / Fold change vs veh, GMCL1 /// GMCL1P1 / RFU, AEBP2 / Fold change vs veh, AEBP2 / RFU, SNHG1 /// SNORD22 /// SNORD25 /// SNORD26 /// SNORD27 /// SNORD28 /// SNORD29 /// SNORD31 / Fold change vs veh, SNHG1 /// SNORD22 /// SNORD25 /// SNORD26 /// SNORD27 /// SNORD28 /// SNORD29 /// SNORD31 / Fold change (Aza/veh), C12orf56 (ProbeSet 11735607_a_at) / Fold change (ACY-1035/veh), C12orf56 (ProbeSet 11735607_a_at) / Fold change (Aza/veh), FGFR1OP (ProbeSet 11751329_s_at) / Fold change (ACY-1035/veh), FGFR1OP (ProbeSet 11751329_s_at) / Fold change (Aza/veh), VPS36 (ProbeSet 11739960_a_at) / Fold change (ACY-1035/veh), VPS36 (ProbeSet 11739960_a_at) / RFU SYPL1 (11715823_x_at) / Fold change /veh SYPL1 (11715823_x_at) / RFU IGFBP7 (11715501_s_at) / Fold change /veh IGFBP7 (11715501_s_at) / RFU REEP3 (11722064_at) / Fold change /veh REEP3 (11722064_at) / RFU IGLL1 (11728026_x_at) / Fold change /veh IGLL1 (11728026_x_at): dose or concentration left out as unconfirmed
# Conditions: MV-4-11 cells, 48 hours
smiles,measurement,value
Nc1ncn([C@@H]2O[C@H](CO)[C@@H](O)[C@H]2O)c(=O)n1 [azacitidine],RFU DUSP10 (11751237_a_at),30.26 RFU
